The source of these data is patent US5977169A, “Substituted tetronic acids useful for treating HIV and other retroviruses” (priority 1997, dated 1999).

The target in the test is T1, HIV-1 protease (Human immunodeficiency virus type 1 group M subtype B, UniProt P04585).
T1 construct: The protease (or proteinase) enzyme, consisting of only 99 amino acids
The experiment in a line: In vitro HIV protease inhibitory assay (fluorescently labeled substrate, avidin-polystyrene particles). It counts as biochemical. The note with it: for inhibition at 3.3 µM: HIV-1 dose 3.3 μM; for inhibition at 10 µM: HIV-1 dose 10.0 μM; for inhibition at 30 µM: HIV-1 dose 30.0 μM; for inhibition at 0.37 µM: HIV-1 dose 0.37 μM; for inhibition at 1.1 µM: HIV-1 dose 1.1 μM. The procedure:
The HIV protease screening assay is based on a fluorescently labeled substrate which can be resolved from nonlabeled cleavage product using avidin-polystyrene particles, 0.7-0.9 μm. The substrate is biotinylated at the amino terminal arginine and fluorescently labeled with fluorescein isothiocynate (FITC) at the carboxyl terminal lysine. This assay has been employed to detect novel, nonpeptidic inhibitors of HIV-1 protease. Substrate (20 μl of 0.2 μM), sample (10 μl of desired concentraion), and enzyme (10 μl of 0.1 μM) are added to a 96 well pandex plate. The assay is run in 0.1 M sodium acetate buffer at pH 5.5 in the presence of 1.0 M sodium chloride and 0.05% NP-40 and incubated in the dark for one hour at room temperature. Avidin coated polystyrene beads (40 μl of 0.1% (w/v)) are added and the incubation is continued in the dark for an additional half hour. The labeled cleavage product is separated from the unreacted substrate via filtration and is read on the IDEXX Screen Machine. (IDEXX Corporation--Portland, Me.) The data are analyzed by appropriate computer algorithms to ascertain percent inhibition values.
The Activity Table showing the results of the HIV Protease Inhibitory Assay appears below in TABLE 1. The table has three columns, the left column provides the code number of the compound for easy cross reference to structure tables and detailed procedures, the middle column provides the concentration of test compound and the column on the right provides the percent inhibition.

[1] abbreviates: test compound concentration 3.3 μM.
Where [2] appears, read: test compound concentration 10.0 μM.
[3] abbreviates: test compound concentration 30.0 μM.

Molecules are shown by their SMILES. Structures can show the parent of a compound that is named as a salt. Bounds are passed on as bounds.

Consider `CCCC1(Cc2cccnc2)OC(=O)C(C(c2ccccc2)C2CC2)=C1O` (stereo not shown) [DX-6, 2(5H)-Furanone, 3-(cyclopropylphenylmethyl)-4-hydroxy-5-propyl-5-(3--pyridinylmethyl)-], for which the inhibition – broadly, the drop in the measured response relative to a control, in per cent – at 3.3 µM came to 103%; the inhibition at 10 µM was 102%; the inhibition at 30 µM is 104%.
On the same counts, the results for `O=C1OC(C(CCc2ccccc2)c2ccccc2)C(O)=C1C(c1ccccc1)C1CC1` (stereo not shown) [GX-4, 2(5H)-Furanone,3-(cyclopropylphenylmethyl)-5-(1,3-diphenylpropyl)-4-hydroxy-] are 93.6%, 108% and 103%.
For `CCCC1(CCC)OC(=O)C(C(c2cccc(NS(=O)(=O)c3ncccn3)c2)C2CC2)=C1O` (stereo not shown) [IX-55, 2-Pyrimidinesulfonamide, N-(3-(cyclopropyl-(4-hydroxy-2-oxo-5,5-dipropyl-2,5 dihydro-furan-3-yl)-methyl)-phenyl)-], in that order: 93.8%, 93.8% and 96.3%.
For `CC(C)(C)C(C1=C(O)C(Cc2ccccc2)(Cc2ccccc2)OC1=O)c1cccc(NS(=O)(=O)c2ccc(C#N)cc2)c1` (stereo not shown) [IX-54], in that order: 102%, 105% and 92.4%.
Regarding `CCC(C1=C(O)C(CC)(Cc2ccccc2)OC1=O)c1ccccc1` (stereo not shown) [IX-10, 2(5H)-Furanone, 5-ethyl-4-hydroxy-5-(phenyl-methyl)-3-(1-phenylpropyl)-], the inhibition at 3.3 µM turned out to be 97.3%, the inhibition at 10 µM turned out to be 105% and the inhibition at 30 µM amounted to 101%.
On the same counts, the results for `CCCC1(CCC)OC(=O)C(C(c2cccc(NS(=O)(=O)c3ccc(C#N)cn3)c2)C2CC2)=C1O` (stereo not shown) [IX-35, 5-cyano-2-pyridinesulfonamide, N-(3-(cyclopropyl(2,5-dihydro-4-hydroxy-2-oxo-5,5-dipropyl-3-furanyl)methyl)phenyl)-] are 82.2%, 98.8% and 91.9%.
Consider `O=C1OC(C(CCO)CCc2ccccc2)C(O)=C1C(c1ccccc1)C1CC1` (stereo not shown) [HX-2, 2(5H)-Furanone, 3-(cyclopropylphenylmethyl)-4-hydroxy-5-(1-(2-hydroxyethyl)--3-phenylpropyl)-], for which the inhibition at 0.1 µM (HIV-1 dose 0.1 μM) was under 10%. Also, the inhibition at 0.3 µM (HIV-1 dose 0.3 μM) was determined as 13.5%.
With `CCC(C)C1(CCCc2ccccc2)OC(=O)C(C(c2ccccc2)C2CC2)=C1O` (stereo not shown) [DX-19, 2(5H)-Furanone, 3-(cyclopropylphenylmethyl)-4-hydroxy-5-(1-methylpropyl)--5-(3-phenylpropyl)-], the inhibition at 0.37 µM came out at 100%, the inhibition at 1.1 µM turned out to be 103% and the inhibition at 3.3 µM was 100%.
`O=C1OC(CCCc2ccccc2)(CC2CC2)C(O)=C1C(c1ccccc1)C1CC1` (stereo not shown) [DX-14]: the inhibition at 0.37 µM is 104%. The inhibition at 0.123 µM (HIV-1 dose 0.123 μM) was 89.2%.
Consider `CCCC1(CCC)OC(=O)C(C(c2cccc(N)c2)C2CC2)=C1O` (stereo not shown) [IX-12, 2(5H)-Furanone, 3-((3-aminophenyl)cyclopropylmethyl)-4-hydroxy-5,5-dipropyl-hydrochloride], for which the “HIV-1 Protease % Inhibition” value by setting is: under setting [1], 117.79%; under setting [2], 119.69%; under setting [3], 120.48%.
`CCCC1(CCC)OC(=O)C(C(c2cccc(NS(=O)(=O)c3nc4ccccc4[nH]3)c2)C2CC2)=C1O` (stereo not shown) [IX-51]: the inhibition at 3.3 µM was determined as 101%, the inhibition at 10 µM amounted to 102% and the inhibition at 30 µM stood at 106%.
Regarding `COC(=O)CC(CCc1ccccc1)C1OC(=O)C(C(c2ccccc2)C2CC2)=C1O` (stereo not drawn) [HX-1, 2-Furanpropanoic acid, 4-(cyclopropylphenyl-methyl)-2,5-dihydro-3-hydroxy-5--oxo-β-(2-phenylethyl)-, methyl ester], the inhibition at 1.1 µM was found to be 37.6%, the inhibition at 3.3 µM was determined as 62.1% and the inhibition at 10 µM turned out to be 90.9%.
`CCCC1(CCC)OC(=O)C(C(c2cccc(N)c2)C2CC2)=C1O` (stereo not shown) [IX-11, 2(5H)-Furanone, 3-((3-aminophenyl)cyclopropylmethyl)-4-hydroxy-5,5-dipropyl-]: the inhibition at 3.3 µM worked out at 108%, the inhibition at 10 µM came out at 108% and the inhibition at 30 µM was found to be 114%.
As to `CCCC1(Cc2ccccc2)OC(=O)C(C(c2cccc(NS(=O)(=O)c3cccc4cccnc34)c2)C(C)C)=C1O` (stereo not shown) [IX-31], the inhibition at 3.3 µM came out at 107%, the inhibition at 10 µM stood at 114% and the inhibition at 30 µM came out at 109%.
For `C=CC(C1=C(O)C(CCCc2ccccc2)OC1=O)c1ccccc1` (stereo not shown) [FX-3, 2(5H)-Furanone, 4-hydroxy-3-(1-phenyl-2-propenyl)-5-(3-phenylpropyl)-], in that order: 38.6%, 66.3% and 68.6%.
On the same counts, the results for `O=C1OC2(CCCCC2Cc2ccccc2)C(O)=C1C(c1ccccc1)C1CC1` (stereo not shown) [IX-6, 1-Oxaspiro[4.5]dec-3-en-2-one, 3-(cyclo-propylphenylmethyl)-4-hydroxy--6-(2-phenylmethyl)-] are 101%, 104% and 105%.
Regarding `O=C1OC2(CCNCC2)C(O)=C1C(c1ccccc1)C1CC1` (stereo not shown) [OX-2, 3-(Cyclopropyl-phenyl-methy1)-4-hydroxy--1-oXa-8-aza-spiro[4.5]dec-3-en-2-one], the inhibition at 3.3 µM was 14.9%, the inhibition at 10 µM amounted to 34.1% and the inhibition at 30 µM was found to be 59%.
As for `CCC1(CCc2ccccc2)OC(=O)C(C(c2ccccc2)C2CC2)=C1O` (stereo not shown) [DX-7, 2(5H)-Furanone, 3-(cyclopropylphenylmethyl)-5-ethyl-4-hydroxy-5-(2-phenyl-ethyl)-], the inhibition at 3.3 µM was found to be 108%, the inhibition at 10 µM came out at 112% and the inhibition at 30 µM is 103%.
As for `CCC(c1ccccc1)C1OC(=O)C(C(c2ccccc2)C2CC2)=C1O` (stereo not shown) [GX-6, 2(5H)-Furanone, 3-(cyclopropylphenylmethyl)-4-hydroxy-5-(1-phenylpropyl)-], the inhibition at 3.3 µM is 91.9%, the inhibition at 10 µM was determined as 99.7% and the inhibition at 30 µM is 103%.
In the case of `CCCC1(CCC)OC(=O)C(C(c2cccc(NS(=O)(=O)c3ccc(C#N)c(C4CCCC4)c3)c2)C2CCCC2)=C1O` (stereo not shown) [IX-49, Benzenesulfonamide, 4-cyano 3-cyclpentyl-N-(3-(cyclopentyl(2,5-dihydro-4-hydroxy-2-oxo-5,5-dipropyl-3-furanyl)methyl)phenyl)-], the “HIV-1 Protease % Inhibition” value is, setting by setting: under setting [1], 86.97%; under setting [2], 94.94%; under setting [3], 78.56%.
In the case of `CCCCC1(CCCC)OC(=O)C(C(c2ccccc2)C2CC2)=C1O` (stereo not shown) [BX-15, 2(5H)-Furanone, 5,5-dibutyl-3-(cyclopropylphenylmethyl)-4-hydroxy-], the inhibition at 3.3 µM is 115%, the inhibition at 10 µM turned out to be 118% and the inhibition at 30 µM stood at 122%.
For `O=C1OC2(CCCCC2CCc2ccccc2)C(O)=C1C(c1ccccc1)C1CC1` (stereo not shown) [IX-4, 1 -Oxaspiro[4.5]dec-3-en-2-one, 3-(cyclo-propylphenylmethyl)-5-hydroxy--6-(2-phenylethyl)-], the inhibition at 10 µM amounted to 78.1% and the inhibition at 30 µM came to 86%. Further, under setting [1], the “HIV-1 Protease % Inhibition” value is recorded as 56.89%.
Regarding `CCCC1(CCC)OC(=O)C(C(c2cccc(NS(=O)(=O)c3ccc(F)cc3)c2)C2CC2)=C1O` (stereo not shown) [IX-16], the inhibition at 3.3 µM stood at 108%, the inhibition at 10 µM came out at 109% and the inhibition at 30 µM came to 106%.
For `CCCC1(CCC)OC(=O)C(C(c2cccc(NS(=O)(=O)c3cn(C)cn3)c2)C2CCCC2)=C1O` (stereo not shown) [IX-42, 1H-Imidazole-4-sulfonamide, N-(3-(cyclopentyl(2,5-dihydro-4-hydroxy-2-oxo-5,5-dipropyl-3-furanyl)methyl)phenyl)-1-methyl-], in that order: 94.5%, 96% and 96.8%.
Regarding `CCCC1(CCC)OC(=O)C(C(c2ccccc2)c2cccc(NS(=O)(=O)c3cn(C)cn3)c2)=C1O` (stereo not shown) [IX-48, 1H-Imidazole-4-sulfonamide, N-(3-((5,5-dipropyl-4-hydroxy-2-oxo-2,5-dihydro-3 furanyl)-phenyl-methyl)phenyl)-1-methyl-], the inhibition at 3.3 µM turned out to be 94.5%, the inhibition at 10 µM was determined as 94.7% and the inhibition at 30 µM turned out to be 89.1%.
On the same counts, the results for `CCC1(CCCc2ccccc2)OC(=O)C(C(c2ccccc2)C2CC2)=C1O` (stereo not shown) [DX-11, 2(5H)-Furanone, 3-(cyclopropylphenylmethyl)-5-ethyl-4-hydroxy-5-(3-phenyl-propyl)-] are 101%, 111% and 105%.
`O=C1OC(C(O)C=Cc2ccccc2)C(O)=C1C(c1ccccc1)C1CC1` (stereo not shown) [BX-7, 2(5H)-Furanone, 3-(cyclopropylphenylmethyl)-4-hydroxy-5-(1-hydroxy-3--phenyl-2-propenyl)-]: the inhibition at 3.3 µM is under 10%, the inhibition at 10 µM is 18% and the inhibition at 30 µM turned out to be 40%.
